The record followed here is publication PMC7463460, “Structure and Antiparasitic Activity Relationship of Alkylphosphocholine Analogues against Leishmania donovani” (Microorganisms, 2020).

Values joined by “and” are separate entries in the source; they are usually repeats but may differ in a detail not shown here. Equal entries are not always repeated. Some results are limits rather than exact numbers.

Holding throughout (format): cell-based, Leishmania donovani
The subject of experiment [1] is L. donovani 282/4 Milt-Sb-sensitive intracellular amastigotes. The experiment is described as follows: Intracellular amastigote assay, Milt-resistant 282/4. The conditions noted are these: for IC50: Leishmania donovani, read-out: Mean IC50 Value Amastigotes; for Selectivity Index (SI50): strain 282/4, Milt-Sb-sensitive, macrophage CC50 / amastigote IC50. The source says:
(§1) L. donovani cloned strains with different Sb susceptibility backgrounds were derived from isolates obtained from VL patients at the B.P. Koirala Institute of Health Sciences, Dharan, Nepal: MHOM/NP/02/BPK282/0cl4 (Sb sensitive, Sb-S). MHOM/NP/02/BPK087/0cl11 (Sb intermediate, Sb-I) and MHOM/NP/02/BPK275/0cl18 (Sb resistance, Sb-R [13]). In addition, Milt-resistant parasites raised against these three Sb sensitivity backgrounds and the Sb-sensitive strain (MHOM/ET/67:LV82) was also used in studies. Luciferase expressing promastigotes for the LV82 and Nepalese strains were prepared using previously published methods and the integrative construct (a gift from Dr D.F. Smith), designated pGL1313, contained pSSU-int fragments to facilitate integration into the ribosomal RNA locus of Leishmania.
(§2) In the macrophage studies, the method described in previous studies was used as follows. Briefly, bone-marrow-derived BALB/c macrophages (1–2 × 10^5) in 100 µL complete RPMI 1640 medium were added to the wells of a 96 well plate and left to adhere for 24 h at 37 °C, 5% CO₂/95% air. The medium was removed and 100 µL of the appropriate L. donovani luciferase-expressing promastigotes line (parasite: host cell ratio 1:10, 1:20 or 1:40) was added to each well, the ratio used reflected the infectivity of the strain and ensured that control data gave a bioluminescent signal within the same range. […] The variability in infectivity complicates strain to strain comparisons, but we decided to focus on achieving good infection levels in controls so that the effect of drug treatment could be determined. It is possible that intracellular macrophage parasites could have been at different developmental stages at 24 h post-infection. […] Therefore, we assumed that the effect of compounds on the amastigote stage rather than the promastigotes stage was determined in in vitro macrophage studies.
The plate was incubated for a further 24 h, the medium removed, and each well washed with PBS to eliminate non-internalized parasites, which were monitored microscopically. […]
(§3) Luciferin solution (1 µg/mL in 20 µL medium without FCS) was added to the appropriate wells of the 96-well plate at the end of the experiment and the amount of light emitted/well was measured using a luminometer (Biotek Synergy HT, relative light units) using a wavelength/bandwidth of 440/40 nm, or IVIS® imaging (Spectrum Living Image system®, total flux, photons/sec).
(§4) The effect of drug treatment on parasite survival was determined by calculating the mean suppression in the light emitted from the drug-treated experimental sample compared to the mean control value and used to calculate the IC50 using Grafit® software (version 5.0, Erithacus Software, East Grinstead, West Sussex, UK). The effect of drug alone on the viability of uninfected macrophages was determined using the same experimental protocol above, but cell viability was determined using an alamar blue colorimetric assay. At the end of the incubation period, cells’ 10 µL resazurin solution (0.02% w/v) was added to control and drug treated cells and the absorbance of samples was read at 575 and 595 nm. The effect of drug treatment on cell survival, which correlates with the magnitude of dye reduction, was expressed as percentage viability (or alamar blue reduction) and determined using the formula provided in the manufacturer’s protocol % alamar blue reduction=(εoxλ)(Aλ1)−(εoxλ1)(Aλ2)/(εredλ1)(A^′λ2)−(εredλ2)(A^′λ1)x100

Experiment [2] has as its system L. donovani 275/18 Milt-Sb-resistant intracellular amastigotes. Briefly: Intracellular amastigote assay, Milt-resistant 275/18. To be noted: for IC50: Leishmania donovani, read-out: Mean IC50 Value Amastigotes; for Selectivity Index (SI50): macrophage CC50 / amastigote IC50.
From the text: as §1, §2
(§5) The plate was incubated for a further 24 h, the medium removed, and each well washed with PBS to eliminate non-internalized parasites, which were monitored microscopically. When the wells were devoid of external parasites, 100 µL of the medium alone (control) or appropriate APC compound was then added (0.01–0.197 µg/mL, n = 3/treatment). […]. All plates were incubated for 72 h at 37 °C, 5% CO₂/95% air. Wells with macrophage and with no drug or promastigotes added were used in control experiments.
as §3
as §4, with “reduction=(εoxλ)(Aλ1)−(εoxλ1)(Aλ2)/(εredλ1)(A^′λ2)−(εredλ2)(A^′λ1)x100 […]” for “reduction=(εoxλ)(Aλ1)−(εoxλ1)(Aλ2)/(εredλ1)(A^′λ2)−(εredλ2)(A^′λ1)x100”

The test system of experiment [3] is L. donovani LV82 intracellular amastigotes. Briefly: Intracellular amastigote assay in bone-marrow-derived macrophages, strain LV82. The conditions noted are these: for IC50 / IC90: Leishmania donovani, Macrophage; for IC50: in Mus musculus, 72 h; for IC90: LV82; for Selectivity Index (SI50): macrophage CC50 / LV82 intracellular amastigote IC50. As for the experimental part: (§6) In the macrophage studies, the method described in previous studies was used as follows. […] It is possible that intracellular macrophage parasites could have been at different developmental stages at 24 h post-infection. […] Therefore, we assumed that the effect of compounds on the amastigote stage rather than the promastigotes stage was determined in in vitro macrophage studies.
(§7) The plate was incubated for a further 24 h, the medium removed, and each well washed with PBS to eliminate non-internalized parasites, which were monitored microscopically. […] Wells with macrophage and with no drug or promastigotes added were used in control experiments.
as §3
as §4, with “At the end of the incubation period, cells’ 10 µL resazurin solution (0.02% w/v) was added to control and drug treated cells and the absorbance of samples was read at 575 and 595 nm.” left out

In experiment [4] the test system is L. donovani 087/11 (Sb-intermediate) intracellular amastigotes. The experiment is described as follows: Intracellular amastigote assay, Sb-intermediate strain 087/11. The conditions noted are these: for IC50: Leishmania donovani, read-out: Mean IC50 Amastigotes; for Cross-Resistance Index (CRI50) Amast: strain 087/11, Sb-intermediate vs Sb-S; for Selectivity Index (SI50): strain 087/11, Sb-intermediate, macrophage CC50 / amastigote IC50.
From the text: as §1, §2, §5, §3
as §4, with “reduction=(εoxλ)(Aλ1)−(εoxλ1)(Aλ2)/(εredλ1)(A^′λ2)−(εredλ2)(A^′λ1)x100 […]” for “reduction=(εoxλ)(Aλ1)−(εoxλ1)(Aλ2)/(εredλ1)(A^′λ2)−(εredλ2)(A^′λ1)x100”

The test system of experiment [5] is L. donovani 282/4 (Sb-sensitive) intracellular amastigotes. Briefly: Intracellular amastigote assay, Sb-sensitive strain 282/4. The conditions noted are these: strain 282/4, Sb-sensitive; for IC50: Leishmania donovani; for Selectivity Index (SI50): macrophage CC50 / amastigote IC50.
From the text: as §1, §6, §7, §3
as §4, with “At the end of the incubation period, cells’ 10 µL resazurin solution (0.02% w/v) was added to control and drug treated cells and the absorbance of samples was read at 575 and 595 nm.” left out

Where [6] appears, read: LV82, intracellular in BALB/c macrophages, 3 days, 37 °C.
Setting [7] is: strain 275/18, Milt-Sb-resistant.

Turning to `CCCCCCCCCCCCCCCCOP(=O)([O-])OCC[N+](C)(C)C` [APC16, hexadecylphosphocholine, reference compound], the IC50 (commonly the concentration that inhibits the measured activity by half) was > 1.61 µg/mL and > 3.95 µM in experiment [1]; > 61.4 µg/mL and > 151 µM in experiment [2]; 0.1 µg/mL and 250 nM in experiment [3] (setting [6]); 0.29 µg/mL and 710 nM in experiment [4]; 0.31 µg/mL and 760 nM in experiment [5]. Also, the IC90 (usually the point of the concentration-response curve where the effect stands at 90%) in experiment [3] is 0.9 ± 0.016 µg/mL.

On to `CCCCCCCCCCCCCCOP(=O)([O-])OCC[N+](C)(C)C` [APC14, tetradecylphosphocholine], for which the IC50 is > 1.73 µg/mL and > 4.56 µM in experiment [1]; 34.9 µg/mL and 91.8 µM in experiment [2]; 0.03 µg/mL and 66 nM in experiment [3] (setting [6]); 0.19 µg/mL and 500 nM in experiment [4]; 0.12 µg/mL and 320 nM in experiment [5]. Also, the “Selectivity Index (SI50)” value is over 23.64 in experiment [1]; 1.17 in experiment [2] (setting [7]); 1632.58 in experiment [3]; 215.21 in experiment [4]; 340.75 in experiment [5]. The figures for the “Cross-Resistance Index (CRI50) Amast” value in experiment [2] (setting [7]) and in experiment [4] were over 20.144 and 1.58, respectively.

`CCCCCCCCCCCCOP(=O)([O-])OCC[N+](C)(C)C` [APC12, dodecylphosphocholine]: the IC50 in experiment [1] is 0.08 µg/mL and 230 nM; in experiment [2] it was 4.45 µg/mL and 12.7 µM; in experiment [3] (setting [6]), 0.009 µg/mL and 26 nM; in experiment [4], 0.2 µg/mL and 570 nM; in experiment [5], 0.26 µg/mL and 740 nM. Moreover, the “Selectivity Index (SI50)” value in experiment [1] is recorded as 442.25; in experiment [2] (setting [7]), 7.95; in experiment [3], 3870.77; in experiment [4], 176.90; in experiment [5] it was 136.08. Besides, in experiment [3] (setting [6]), the “Amastigote mean IC50” value was found to be 0.01 ± 0.00 µg/mL. Also, the IC90 in experiment [3] came out at 0.081 ± 0.01 µg/mL. Besides, in experiment [3] (intracellular amastigotes), the “fold more active than Milt (APC16)” value amounted to 4 fold. Moreover, the “Cross-Resistance Index (CRI50) Amast” value in experiment [4] was 0.77.
